In general, IC50 refers to the concentration that gives 50% inhibition. Higher therefore signals a need for much substance.

Mitogen-activated protein kinase 14, sequence (Q16539 whole entry): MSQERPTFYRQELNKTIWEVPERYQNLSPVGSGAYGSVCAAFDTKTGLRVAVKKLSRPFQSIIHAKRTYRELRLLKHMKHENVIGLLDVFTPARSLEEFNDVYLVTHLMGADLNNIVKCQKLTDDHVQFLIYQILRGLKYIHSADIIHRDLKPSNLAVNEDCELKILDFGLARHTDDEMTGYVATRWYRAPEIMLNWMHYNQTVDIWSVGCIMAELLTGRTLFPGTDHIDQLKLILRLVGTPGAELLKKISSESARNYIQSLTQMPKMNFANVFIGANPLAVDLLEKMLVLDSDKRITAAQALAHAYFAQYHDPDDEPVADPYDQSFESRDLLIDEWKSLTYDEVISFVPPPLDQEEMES

The assay concerns the target Mitogen-activated protein kinase 14 (Homo sapiens, UniProt Q16539). The assay can be described thus: Inhibition of p38alpha MAPK after 40 mins by scintillation counting.
Take `CCCCNc1cc(-c2oc3ccccc3c(=O)c2-c2ccc(F)cc2)ccn1`: the IC50 came to 21 nM.

As to `O=c1c(-c2ccc(F)cc2)c(-c2ccncc2)oc2ccccc12`, half-maximal inhibition (IC50) required 813 nM.

As for `O=c1c(-c2ccc(F)cc2)c(-c2ccnc(NCc3ccccc3)c2)oc2ccccc12`, the midpoint of inhibition, the IC50, lay at 35 nM.

The molecule `COCCCNc1cc(-c2oc3ccccc3c(=O)c2-c2ccc(F)cc2)ccn1` came in with an IC50 of 39 nM.

Molecule `CN(C)CCCNc1cc(-c2oc3ccccc3c(=O)c2-c2ccc(F)cc2)ccn1` showed an IC50 of 761 nM.

On to `O=c1c(-c2ccc(F)cc2)c(-c2ccnc(NC3CCOCC3)c2)oc2ccccc12`, for which the concentration for half-maximal inhibition (IC50) amounted to 45 nM.

As to `O=c1c(-c2ccc(F)cc2)c(-c2ccnc(Cl)c2)oc2ccccc12`, half-maximal inhibition (IC50) required 1380 nM.

For the origin of these results see ChEMBL document CHEMBL2040781, “Design, synthesis, and biological evaluation of chromone-based p38 MAP kinase inhibitors” (J Med Chem, 2011).
